{"source": "patent US10766869B2", "about": "“Triazoles for the treatment of demyelinating dieases” (Vertex Pharmaceuticals Incorporated, priority 2015, dated 2020)", "test_system": "primary rat mixed cortical cells", "assay": "In vitro myelination assay (MBP positive myelin strands, fold myelin pixels above background)", "assay_type": "cell-based", "conditions": "Rattus norvegicus, relative to baseline of no added compound; for fold induction at 1 µM: 1.0 μM compound, read-out: Fold myelin pixels above background, 1.0 μM; for fold induction at 10 µM: 10.0 μM compound, read-out: Fold myelin pixels above background, 10.0 μM", "how_it_was_run": "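P1 rat cortical cells (neurons, OPCs, oligodendrocytes, astrocytes, microglia) were cultured 14 days at 37 °C with compound, with half-medium changes containing 1× compound on days 6 and 10. Fixed cells were immunostained for MBP and imaged at 10×. Total MBP myelin pixels per well were expressed as fold above no-compound baseline at 1.0 μM and 10.0 μM.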"}
{"molecule": "Cc1cc(Nc2ncn(-c3ccccc3)n2)cc(N2CCN(C3CCC3)CC2)c1", "note": "[Compound 290, N-[3-(4-cyclobutylpiperazin-1-yl)-5-methyl-phenyl]-1-phenyl-1,2,4-triazol-3-amine]", "values": [{"measurement": "fold induction at 1 µM", "result": "1000 to 10000"}, {"measurement": "fold induction at 10 µM", "result": "1000 to 10000"}]}
{"molecule": "Cc1cc(Nc2ncn(-c3ncncc3F)n2)cc(N2CCN(C3COC3)CC2)c1", "note": "[Compound 291, 1-(5-fluoropyrimidin-4-yl)-N-[3-methyl-5-[4-(oxetan-3-yl)piperazin-1-yl]phenyl]-1,2,4-triazol-3-amine]", "values": [{"measurement": "fold induction at 1 µM", "result": "≤ 1"}, {"measurement": "fold induction at 10 µM", "result": "1 to 10"}]}
{"molecule": "Cc1cc(Nc2ncn(-c3ccccc3)n2)cc(N2C[C@@H]3C[C@H]2CN3C2CC2)c1", "note": "[Compound 292, N-[3-[(1S,4S)-2-cyclopropyl-2,5-diazabicyclo[2.2.1]heptan-5-yl]-5-methyl-phenyl]-1-phenyl-1,2,4-triazol-3-amine]", "values": [{"measurement": "fold induction at 1 µM", "result": "100 to 1000"}, {"measurement": "fold induction at 10 µM", "result": "10 to 100"}]}
{"molecule": "COC1CCCN(c2cc(C)cc(Nc3ncn(-c4cc(F)cc(F)c4)n3)c2)C1", "note": "(stereo not shown) [Compound 293, 1-(3,5-difluorophenyl)-N-[3-(3-methoxy-1-piperidyl)-5-methyl-phenyl]-1,2,4-triazol-3-amine]", "values": [{"measurement": "fold induction at 1 µM", "result": "10 to 100"}, {"measurement": "fold induction at 10 µM", "result": "10 to 100"}]}
{"molecule": "Cc1cc(Nc2ncn(-c3ccccc3)n2)cc(C2CCN(C3(C)COC3)CC2)c1", "note": "[Compound 294, N-[3-methyl-5-[1-(3-methyloxetan-3-yl)-4-piperidyl]phenyl]-1-phenyl-1,2,4-triazol-3-amine]", "values": [{"measurement": "fold induction at 1 µM", "result": "1000 to 10000"}, {"measurement": "fold induction at 10 µM", "result": "1000 to 10000"}]}
{"molecule": "Cc1cc(Nc2ncn(-c3cc(F)cc(F)c3)n2)cc(C2CNC(=O)O2)c1", "note": "(stereo not shown) [Compound 295, 5-[3-[[1-(3,5-difluorophenyl)-1,2,4-triazol-3-yl]amino]-5-methyl-phenyl]oxazolidin-2-one]", "values": [{"measurement": "fold induction at 1 µM", "result": "10 to 100"}, {"measurement": "fold induction at 10 µM", "result": "1 to 10"}]}
{"molecule": "F[C@@H]1CCN(c2cc(Nc3ncn(-c4ccccc4)n3)cc(C3CC3)n2)C1", "note": "[Compound 296, 2-cyclopropyl-6-[(3R)-3-fluoropyrrolidin-1-yl]-N-(1-phenyl-1,2,4-triazol-3-yl)pyridin-4-amine]", "values": [{"measurement": "fold induction at 1 µM", "result": "100 to 1000"}, {"measurement": "fold induction at 10 µM", "result": "10 to 100"}]}
{"molecule": "Cc1cc(Nc2ncn(-c3cccnc3)n2)cc(N2CCN(C)CC2)c1", "note": "[Compound 297, N-[3-methyl-5-(4-methylpiperazin-1-yl)phenyl]-1-(3-pyridyl)-1,2,4-triazol-3-amine]", "values": [{"measurement": "fold induction at 1 µM", "result": "10 to 100"}, {"measurement": "fold induction at 10 µM", "result": "10 to 100"}]}
{"molecule": "Fc1cc(F)cc(-n2cnc(Nc3cc(C4=CCOC4)cc(N4CCOCC4)c3)n2)c1", "note": "[Compound 298, 1-(3,5-difluorophenyl)-N-[3-(2,5-dihydrofuran-3-yl)-5-morpholino-phenyl]-1,2,4-triazol-3-amine]", "values": [{"measurement": "fold induction at 1 µM", "result": "1000 to 10000"}, {"measurement": "fold induction at 10 µM", "result": "100 to 1000"}]}
{"molecule": "COCC1CCN(c2cc(C)cc(Nc3ncn(-c4ccc(F)c(F)c4)n3)c2)CC1", "note": "[Compound 299, 1-(3,4-difluorophenyl)-N-[3-[4-(methoxymethyl)-1-piperidyl]-5-methyl-phenyl]-1,2,4-triazol-3-amine]", "values": [{"measurement": "fold induction at 1 µM", "result": "100 to 1000"}, {"measurement": "fold induction at 10 µM", "result": "10 to 100"}]}
{"molecule": "CC(=O)N1CCCC(c2cc(C)cc(Nc3ncn(-c4cnccn4)n3)c2)C1", "note": "(stereo not shown) [Compound 300, 1-[3-[3-methyl-5-[(1-pyrazin-2-yl-1,2,4-triazol-3-yl)amino]phenyl]-1-piperidyl]ethanone]", "values": [{"measurement": "fold induction at 1 µM", "result": "100 to 1000"}, {"measurement": "fold induction at 10 µM", "result": "≤ 1"}]}
{"molecule": "Cc1cc(Nc2ncn(-c3ccc(F)c(F)c3)n2)cc(C2CN(C3COC3)C2)c1", "note": "[Compound 301, 1-(3,4-difluorophenyl)-N-[3-methyl-5-[1-(oxetan-3-yl)azetidin-3-yl]phenyl]-1,2,4-triazol-3-amine]", "values": [{"measurement": "fold induction at 1 µM", "result": "1000 to 10000"}, {"measurement": "fold induction at 10 µM", "result": "100 to 1000"}]}
{"molecule": "Cc1cc(-n2cnc(Nc3cc(C4CC4)cc(N4CCN(C5COC5)CC4)c3)n2)ncn1", "note": "[Compound 302, N-[3-cyclopropyl-5-[4-(oxetan-3-yl)piperazin-1-yl]phenyl]-1-(6-methylpyrimidin-4-yl)-1,2,4-triazol-3-amine]", "values": [{"measurement": "fold induction at 1 µM", "result": "1000 to 10000"}, {"measurement": "fold induction at 10 µM", "result": "1000 to 10000"}]}
{"molecule": "CCc1cc(Nc2ncn(-c3ccc(OC(F)(F)F)cc3)n2)cc(N2CCN(C3COC3)CC2)c1", "note": "[Compound 303, N-[3-ethyl-5-[4-(oxetan-3-yl)piperazin-1-yl]phenyl]-1-[4-(trifluoromethoxy)phenyl]-1,2,4-triazol-3-amine]", "values": [{"measurement": "fold induction at 1 µM", "result": "1 to 10"}, {"measurement": "fold induction at 10 µM", "result": "1 to 10"}]}
{"molecule": "Cc1cc(Nc2ncn(-c3cc(F)cc(F)c3)n2)cc(O[C@H]2CCN(C3COC3)C2)c1", "note": "[Compound 304, 1-(3,5-difluorophenyl)-N-[3-methyl-5-[(3S)-1-(oxetan-3-yl)pyrrolidin-3-yl]oxy-phenyl]-1,2,4-triazol-3-amine]", "values": [{"measurement": "fold induction at 1 µM", "result": "100 to 1000"}, {"measurement": "fold induction at 10 µM", "result": "≤ 1"}]}
{"molecule": "c1ccc(-n2cnc(Nc3cc(C4CC4)cc(N4CCOCC4)c3)n2)cc1", "note": "[Compound 305, N-(3-cyclopropyl-5-morpholino-phenyl)-1-phenyl-1,2,4-triazol-3-amine]", "values": [{"measurement": "fold induction at 1 µM", "result": "100 to 1000"}, {"measurement": "fold induction at 10 µM", "result": "≤ 1"}]}
{"molecule": "Cc1cc(Nc2ncn(-c3ccccc3)n2)cc(N2CC(C)OC(C)C2)c1", "note": "(stereo not shown) [Compound 306, N-[3-(2,6-dimethylmorpholin-4-yl)-5-methyl-phenyl]-1-phenyl-1,2,4-triazol-3-amine]", "values": [{"measurement": "fold induction at 1 µM", "result": "≤ 1"}, {"measurement": "fold induction at 10 µM", "result": "≤ 1"}]}
{"molecule": "Cc1cc(N2CCOCC2)cc(Nc2ncn(-c3ccccn3)n2)c1F", "note": "[Compound 307, N-(2-fluoro-3-methyl-5-morpholino-phenyl)-1-(2-pyridyl)-1,2,4-triazol-3-amine]", "values": [{"measurement": "fold induction at 1 µM", "result": "1 to 10"}, {"measurement": "fold induction at 10 µM", "result": "10 to 100"}]}
{"molecule": "Cc1cc(Nc2ncn(-c3ccccc3)n2)cc(C2CCNCC2)c1", "note": "[Compound 308, N-[3-methyl-5-(4-piperidyl)phenyl]-1-phenyl-1,2,4-triazol-3-amine]", "values": [{"measurement": "fold induction at 1 µM", "result": "1000 to 10000"}, {"measurement": "fold induction at 10 µM", "result": "≤ 1"}]}
{"molecule": "Cc1cc(Nc2ncn(-c3ccccc3)n2)cc(NC2CCN(C3COC3)C2)c1", "note": "(stereo not shown) [Compound 309, 5-methyl-N1-[1-(oxetan-3-yl)pyrrolidin-3-yl]-N3-(1-phenyl-1,2,4-triazol-3-yl)benzene-1,3-diamine]", "values": [{"measurement": "fold induction at 1 µM", "result": "1000 to 10000"}, {"measurement": "fold induction at 10 µM", "result": "≤ 1"}]}
{"molecule": "COc1cc(Nc2ncn(-c3cc(F)cc(F)c3)n2)cc(N2CCN(C3COC3)CC2)c1", "note": "[Compound 310, 1-(3,5-difluorophenyl)-N-[3-methoxy-5-[4-(oxetan-3-yl)piperazin-1-yl]phenyl]-1,2,4-triazol-3-amine]", "values": [{"measurement": "fold induction at 1 µM", "result": "1000 to 10000"}, {"measurement": "fold induction at 10 µM", "result": "100 to 1000"}]}
{"molecule": "Cc1cc(Nc2ncn(-c3cc(F)cc(F)c3)n2)cc(N2CCN(C(C)(CO)CO)CC2)c1", "note": "[Compound 311, 2-[4-[3-[[1-(3,5-difluorophenyl)-1,2,4-triazol-3-yl]amino]-5-methyl-phenyl]piperazin-1-yl]-2-methyl-propane-1,3-diol]", "values": [{"measurement": "fold induction at 1 µM", "result": "≤ 1"}, {"measurement": "fold induction at 10 µM", "result": "≤ 1"}]}
{"molecule": "Cc1cc(Nc2ncn(-c3cc(C)nc(C)n3)n2)cc(N2CCN(C3COC3)CC2)c1", "note": "[Compound 312, 1-(2,6-dimethylpyrimidin-4-yl)-N-[3-methyl-5-[4-(oxetan-3-yl)piperazin-1-yl]phenyl]-1,2,4-triazol-3-amine]", "values": [{"measurement": "fold induction at 1 µM", "result": "1 to 10"}, {"measurement": "fold induction at 10 µM", "result": "1 to 10"}]}
{"molecule": "Fc1cc(F)cc(-n2cnc(Nc3cc(C4COC4)cc(N4CCN(C5COC5)CC4)c3)n2)c1", "note": "[Compound 313, 1-(3,5-difluorophenyl)-N-[3-(oxetan-3-yl)-5-[4-(oxetan-3-yl)piperazin-1-yl]phenyl]-1,2,4-triazol-3-amine]", "values": [{"measurement": "fold induction at 1 µM", "result": "1 to 10"}, {"measurement": "fold induction at 10 µM", "result": "100 to 1000"}]}
{"molecule": "CCc1cc(Nc2ncn(-c3ccnc(OC)n3)n2)cc(N2CCN(C3COC3)CC2)c1", "note": "[Compound 314, N-[3-ethyl-5-[4-(oxetan-3-yl)piperazin-1-yl]phenyl]-1-(2-methoxypyrimidin-4-yl)-1,2,4-triazol-3-amine]", "values": [{"measurement": "fold induction at 1 µM", "result": "10 to 100"}, {"measurement": "fold induction at 10 µM", "result": "10 to 100"}]}
{"molecule": "C1=C(c2cc(Nc3ncn(-c4ccccc4)n3)cc(C3=CCOCC3)c2)CCOC1", "note": "[Compound 315, N-[3,5-bis(3,6-dihydro-2H-pyran-4-yl)phenyl]-1-phenyl-1,2,4-triazol-3-amine]", "values": [{"measurement": "fold induction at 1 µM", "result": "100 to 1000"}, {"measurement": "fold induction at 10 µM", "result": "100 to 1000"}]}
{"molecule": "Cc1cc(Nc2ncn(-c3ccccc3)n2)cc(C2CCCNC2)c1", "note": "(stereo not shown) [Compound 316, N-[3-methyl-5-(3-piperidyl)phenyl]-1-phenyl-1,2,4-triazol-3-amine]", "values": [{"measurement": "fold induction at 1 µM", "result": "100 to 1000"}, {"measurement": "fold induction at 10 µM", "result": "≤ 1"}]}
{"molecule": "Cc1cc(Nc2ncn(-c3ccc(F)c(F)c3)n2)cc(N2CCN(C)CC2)c1", "note": "[Compound 317, 1-(3,4-difluorophenyl)-N-[3-methyl-5-(4-methylpiperazin-1-yl)phenyl]-1,2,4-triazol-3-amine]", "values": [{"measurement": "fold induction at 1 µM", "result": "100 to 1000"}, {"measurement": "fold induction at 10 µM", "result": "10 to 100"}]}
{"molecule": "Cc1cc(Nc2ncn(-c3cc(F)cc(N4CC[C@@H](C(C)(C)O)C4)c3)n2)cc(N2CCN(C3COC3)CC2)c1", "note": "[Compound 318, 2-[(3R)-1-[3-fluoro-5-[3-[3-methyl-5-[4-(oxetan-3-yl)piperazin-1-yl]anilino]-1,2,4-triazol-1-yl]phenyl]pyrrolidin-3-yl]propan-2-ol]", "values": [{"measurement": "fold induction at 1 µM", "result": "10 to 100"}, {"measurement": "fold induction at 10 µM", "result": "≤ 1"}]}
{"molecule": "c1ccc(-n2cnc(Nc3cc(N4CCOCC4)nc(N4CCOCC4)c3)n2)cc1", "note": "[Compound 319, 2,6-dimorpholino-N-(1-phenyl-1,2,4-triazol-3-yl)pyridin-4-amine]", "values": [{"measurement": "fold induction at 1 µM", "result": "1 to 10"}, {"measurement": "fold induction at 10 µM", "result": "≤ 1"}]}
{"molecule": "Cc1cc(Nc2ncn(-c3cncc(F)c3)n2)cc(N2CCCC2)c1", "note": "[Compound 320, 1-(5-fluoro-3-pyridyl)-N-(3-methyl-5-pyrrolidin-1-yl-phenyl)-1,2,4-triazol-3-amine]", "values": [{"measurement": "fold induction at 1 µM", "result": "10 to 100"}, {"measurement": "fold induction at 10 µM", "result": "100 to 1000"}]}
{"molecule": "Fc1cc(Nc2ncn(-c3ccc(F)cc3F)n2)cc(N2CCOCC2)c1", "note": "[Compound 321, 1-(2,4-difluorophenyl)-N-(3-fluoro-5-morpholino-phenyl)-1,2,4-triazol-3-amine]", "values": [{"measurement": "fold induction at 1 µM", "result": "1 to 10"}, {"measurement": "fold induction at 10 µM", "result": "≤ 1"}]}
